Results on 16 compounds are retold here after PMC4605435 (Journal of medicinal chemistry, 2015).

Structures can show the parent of a compound that is named as a salt.

Data set [1] addresses T1, ACK1 (Homo sapiens, UniProt Q07912). Briefly: ELISA-based ACK1 kinase inhibition. Format: biochemical. To be noted: for ACK1 inhibition in ELISA: 10 μM; for inhibition at 10 µM: read-out: % Inhibition @ 10 μM (ELISA). (In an ELISA, binding on a coated surface is turned into a signal by an enzyme label.)
Data set [2] concerns the target ACK1 Tyr284 phosphorylation in LAPC4 cells (Homo sapiens, UniProt Q07912). Briefly: ACK1 Tyr284 autophosphorylation by immunoblotting in EGF-treated LAPC4 cells. Format: cell-based. To be noted: 5 μM, immunoblot (Figure 3a). (In western blotting, separated proteins are transferred to a membrane and probed.)
A short description of data set [3]: In vitro human plasma stability by HPLC. The class given is in vitro ADME. The conditions noted are these: for stability in human plasma: up to 24 h, HPLC.
The target of data set [4] is ALK (Homo sapiens, UniProt Q9UM73). The data set is described as follows: 33P HotSpot kinase profiling, ALK. The class given is biochemical. To be noted: ALK vs ACK1.
ALK, sequence (Q9UM73 19-1620): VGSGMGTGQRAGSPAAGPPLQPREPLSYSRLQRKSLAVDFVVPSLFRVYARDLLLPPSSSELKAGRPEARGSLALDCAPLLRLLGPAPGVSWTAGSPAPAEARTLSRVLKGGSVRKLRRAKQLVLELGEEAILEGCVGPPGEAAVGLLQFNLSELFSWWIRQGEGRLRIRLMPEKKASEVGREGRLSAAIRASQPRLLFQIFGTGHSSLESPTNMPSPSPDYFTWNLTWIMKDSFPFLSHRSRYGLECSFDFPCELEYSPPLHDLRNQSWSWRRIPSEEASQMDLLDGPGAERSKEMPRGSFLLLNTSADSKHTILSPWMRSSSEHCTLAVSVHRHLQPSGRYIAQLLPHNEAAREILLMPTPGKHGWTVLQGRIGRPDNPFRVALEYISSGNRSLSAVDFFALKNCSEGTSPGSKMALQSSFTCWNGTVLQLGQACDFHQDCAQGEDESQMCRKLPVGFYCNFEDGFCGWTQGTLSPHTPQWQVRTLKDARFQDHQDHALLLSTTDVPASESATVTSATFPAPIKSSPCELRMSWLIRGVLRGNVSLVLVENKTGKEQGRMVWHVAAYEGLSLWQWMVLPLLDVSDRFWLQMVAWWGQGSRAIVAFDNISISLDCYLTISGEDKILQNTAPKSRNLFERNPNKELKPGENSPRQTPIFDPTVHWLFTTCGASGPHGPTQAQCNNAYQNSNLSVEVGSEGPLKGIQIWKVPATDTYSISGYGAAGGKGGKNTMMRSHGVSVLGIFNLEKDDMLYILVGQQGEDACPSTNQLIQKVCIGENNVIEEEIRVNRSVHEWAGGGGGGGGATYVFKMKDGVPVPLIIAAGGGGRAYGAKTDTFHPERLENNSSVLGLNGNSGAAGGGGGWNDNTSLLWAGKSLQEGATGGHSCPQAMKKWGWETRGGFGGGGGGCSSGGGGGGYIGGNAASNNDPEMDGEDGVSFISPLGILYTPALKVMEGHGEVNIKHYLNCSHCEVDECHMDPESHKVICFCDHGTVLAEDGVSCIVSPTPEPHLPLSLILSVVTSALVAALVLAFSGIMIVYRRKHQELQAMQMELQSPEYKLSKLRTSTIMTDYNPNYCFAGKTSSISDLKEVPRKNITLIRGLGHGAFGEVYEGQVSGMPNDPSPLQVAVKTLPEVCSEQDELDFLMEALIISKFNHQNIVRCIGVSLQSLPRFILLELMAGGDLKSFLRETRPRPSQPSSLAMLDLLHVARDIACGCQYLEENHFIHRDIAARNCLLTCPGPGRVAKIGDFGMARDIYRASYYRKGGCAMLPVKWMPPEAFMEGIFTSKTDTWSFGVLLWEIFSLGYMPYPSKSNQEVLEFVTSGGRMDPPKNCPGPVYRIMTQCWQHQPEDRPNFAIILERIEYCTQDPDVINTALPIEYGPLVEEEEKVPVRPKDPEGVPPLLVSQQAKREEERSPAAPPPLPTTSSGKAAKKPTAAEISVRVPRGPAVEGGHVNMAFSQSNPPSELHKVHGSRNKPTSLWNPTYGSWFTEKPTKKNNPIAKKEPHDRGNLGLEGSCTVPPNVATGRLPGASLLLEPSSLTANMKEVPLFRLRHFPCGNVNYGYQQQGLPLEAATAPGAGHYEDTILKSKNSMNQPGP
In data set [5] the target is T1, ACK1. The data set is described as follows: 33P HotSpot assay. Format: biochemical. The conditions noted are these: IC50 (33P Hotspot assay).
Data set [6] concerns A549 lung cancer cells. The conditions noted are these: at 10 μM; cited from earlier work.
The conditions of data set [7]: standards; cited from earlier work.
For data set [8], the system named is VCaP cells. The data set is described as follows: Cell growth, viable cells by trypan blue exclusion, VCaP. The class given is cell-based. To be noted: Homo sapiens, 72 h, read-out: IC50 cell growth VCaP.
The test system of data set [9] is ACK1 autophosphorylation. To be noted: read-out: IC50 inhibition of ACK1 autophosphorylation in intact cells; cited from earlier work.
Data set [10] has as its system LNCaP cells. Briefly: Cell growth, viable cells by trypan blue exclusion, LNCaP. To be noted: Homo sapiens, 72 h, read-out: IC50 cell growth LNCaP. The class given is cell-based.

ACK1 Tyr284 phosphorylation in LAPC4 cells, sequence (Q07912 whole entry): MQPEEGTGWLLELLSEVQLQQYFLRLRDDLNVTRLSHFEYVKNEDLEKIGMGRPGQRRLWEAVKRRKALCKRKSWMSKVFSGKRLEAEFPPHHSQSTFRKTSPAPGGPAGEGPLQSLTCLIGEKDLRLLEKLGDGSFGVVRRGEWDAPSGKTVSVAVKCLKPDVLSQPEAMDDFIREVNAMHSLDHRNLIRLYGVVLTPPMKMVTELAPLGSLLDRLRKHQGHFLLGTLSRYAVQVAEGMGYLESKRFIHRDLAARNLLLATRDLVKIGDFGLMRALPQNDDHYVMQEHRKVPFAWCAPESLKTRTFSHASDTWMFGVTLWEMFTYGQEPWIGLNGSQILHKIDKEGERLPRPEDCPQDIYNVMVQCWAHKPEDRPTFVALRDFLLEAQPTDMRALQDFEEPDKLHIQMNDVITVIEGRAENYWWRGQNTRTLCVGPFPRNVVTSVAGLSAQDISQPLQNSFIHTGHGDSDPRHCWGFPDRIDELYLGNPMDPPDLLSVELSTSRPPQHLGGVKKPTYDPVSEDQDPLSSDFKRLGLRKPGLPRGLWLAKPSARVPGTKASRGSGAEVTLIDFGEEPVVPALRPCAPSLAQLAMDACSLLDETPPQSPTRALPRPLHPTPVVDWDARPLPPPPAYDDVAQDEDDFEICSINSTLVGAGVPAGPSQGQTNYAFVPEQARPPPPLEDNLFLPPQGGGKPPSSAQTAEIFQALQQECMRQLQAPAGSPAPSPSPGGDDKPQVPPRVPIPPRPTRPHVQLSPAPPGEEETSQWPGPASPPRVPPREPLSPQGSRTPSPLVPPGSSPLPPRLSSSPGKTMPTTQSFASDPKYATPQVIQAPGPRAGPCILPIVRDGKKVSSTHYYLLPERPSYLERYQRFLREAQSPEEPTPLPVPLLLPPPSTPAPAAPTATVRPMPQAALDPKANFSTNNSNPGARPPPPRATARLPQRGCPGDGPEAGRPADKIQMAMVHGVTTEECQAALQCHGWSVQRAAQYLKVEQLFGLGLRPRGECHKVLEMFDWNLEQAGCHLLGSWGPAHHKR
T1 sequence (Q07912 whole entry): as above

“5-[(2-Chloro-6-fluorophenyl)carbamoyl]-N^2-[(4-methoxyphenyl)amino]-N^4-[(tetrahydrofuran-2-yl)methyl]pyrimidine-2,4-diamine [9q]”: in [1] (compound 10 μM, average of three or more determinations), the “% Inhibition @ 10 μM (ELISA)” value amounted to 68 ± 10%. Usually half-life stands for the time in which the quantity being followed falls by half. High values mean slow loss, low ones fast loss. Consider `CN1CCN(c2ccc(Nc3ncc(Cl)c(NC[C@H]4CCCO4)n3)cc2)CC1` [(R)-9b, (R)-5-Chloro-N^2-[4-(4-methylpiperazin-1-yl)phenyl]-N^4-[(tetrahydrofuran-2-yl)methyl]pyrimidine-2,4-diamine], for which the “ACK1 activation (Tyr284 autophosphorylation) after EGF” value (shortened to “ACK1 activation”) in data set [2] is recorded as “almost complete loss of ACK1 activation”. Besides, in [3] (human, human plasma), the half-life at 250 µM is > 6 h. Moreover, the “stability in human plasma” value in data set [3] is listed as “stable in human plasma”. Moreover, the “fold difference of ALK IC50 versus ACK1 IC50” value in [4] is 3 fold.

Turning to `Cl.O=C(O)CCc1ccc(Nc2ncc(Br)c(NCC3CCCO3)n2)cc1` (stereo not shown) [compound 28], the “ACK1 inhibition in ELISA” value in data set [1] is on record as “moderate ACK1 inhibition”. A word on the inhibition: it is how much of the control response was suppressed. As a reminder, the IC50 is the concentration that inhibits the measured activity by half. In the case of `O=C(O)CCC(=O)N1CCN(c2ccc(Nc3ncc(C(=O)Nc4c(F)cccc4Cl)c(NCC4CCCO4)n3)cc2)CC1` (stereo not shown) [compound 22, 4-(4-{4-[[5-((2-Chloro-6-fluorophenyl)carbamoyl)-4-(((tetrahydrofuran-2-yl)methyl)amino)pyrimidin-2-yl]amino]phenyl}piperazin-1-yl)-4-oxobutanoic Acid], in [1], the inhibition at 10 µM was determined as 89 ± 5.6%. Further, in data set [5], the IC50 worked out at 0.028 µM. Consider `COc1cc(N2CCN(C)CC2)ccc1Nc1ncc2c(n1)N(C)c1ccccc1C(=O)N2` [compound 3], for which the “A549 lung cancer cell growth” value in data set [6] is given as “inhibits”. For the compound `CN(C)CCNC(=O)CCc1ccc(Nc2ncc(Cl)c(NCC3CCCO3)n2)cc1.Cl` (stereo not shown) [compound 26], in data set [1], the “ACK1 inhibition in ELISA” value was “moderate ACK1 inhibition”.

As for `Cl.O=C(O)CCc1ccc(Nc2ncc(Cl)c(NCC3CCCO3)n2)cc1` (stereo not shown) [compound 24], the “ACK1 inhibition in ELISA” value in [1] is given as “moderate ACK1 inhibition”. As to `CCN(CC)CCOC(=O)c1ccc(N)cc1` [procaine], in data set [7], the “reported stability in human plasma” value is “unstable”. On to `Oc1ccc(NNc2ncc(F)c(NCC3CCCO3)n2)cc1F` (stereo not shown) [9t, 5-Fluoro-N^2-[(4-hydroxy-3-fluorophenyl)amino]-N^4-[(tetrahydrofuran-2-yl)methyl]pyrimidine-2,4-diamine Hydrochloride], for which the inhibition at 10 µM in data set [1] was 41 ± 6.3%. As to `c1ccc(-c2oc3ncnc(NC[C@@H]4CCCO4)c3c2-c2ccccc2)cc1` [1b], the IC50 in data set [8] was 4 µM.

Turning to `COc1cc(N2CCC(N3CCN(C)CC3)CC2)ccc1Nc1ncc(Cl)c(Nc2ccccc2S(=O)(=O)C(C)C)n1` [compound 5, reference compound], the “ACK1 activation” value in data set [2] is recorded as “significant reduction in ACK1 activation”. For the compound `Cl.O=C(O)CCC(=O)N1CCN(c2ccc(Nc3ncc(Br)c(NCC4CCCO4)n3)cc2)CC1` (stereo not shown) [compound 29], the “ACK1 inhibition in ELISA” value in data set [1] is given as “significant ACK1 inhibition”. As to `COC(C)(C)CCn1nc(Nc2c(C)cccc2C)c2cnc(Nc3ccccc3)nc21` [2a], the IC50 in data set [9] is 0.02 µM. With `Cc1cnc(NNc2ccc(O)c(F)c2)nc1NCC1CCCO1` (stereo not shown) [9u, 5-Methyl-N^2-[(4-hydroxy-3-fluorophenyl)amino]-N^4-[(tetrahydrofuran-2-yl)methyl]pyrimidine-2,4-diamine Hydrochloride], the inhibition at 10 µM in [1] worked out at 49 ± 2.8%. For the compound `Cl.O=C(O)Cc1ccc(Nc2ncc(Cl)c(NCC3CCCO3)n2)cc1` (stereo not shown) [compound 23], the “ACK1 inhibition in ELISA” value in data set [1] is on record as “moderate ACK1 inhibition”.

As for `CN1CCN(c2ccc(Nc3ncc(Cl)c(NC[C@@H]4CCCO4)n3)cc2)CC1` [(S)-9b, (S)-5-Chloro-N^2-[4-(4-methylpiperazin-1-yl)phenyl]-N^4-[(tetrahydrofuran-2-yl)methyl]pyrimidine-2,4-diamine], the “ACK1 activation” value in [2] was “almost complete loss of ACK1 activation”. Also, the IC50 in data set [10] worked out at 1.8 µM. For the same compound, the “stability in human plasma” value in [3] is on record as “stable in human plasma”.
